# Positions of bridges follow the written chain, without caps; N, C: chain ends. No end group written: not given here.
# How the values were obtained:
# Type in all cases: cell-based
# [1] = system: Acinetobacter baumannii (clinical isolate); test: Biofilm prevention, crystal violet, 96-well plate; details: added simultaneously, 24 h, 37° C.
# Procedure: (§1) The peptides depicted in Table 1 (each with a cysteine attached to the N- and C-terminus of the peptides) were synthesized using solid-phase methods and were purified to 90% (Peptron, Inc.; Taejeon, South Korea). The peptides were dissolved in 20 μl dimethyl sulfoxide and diluted in double distilled water to a concentration of 10 mg/ml. Additional dilutions were performed in phosphate buffered saline (PBS).
# (§2) The ability of these peptides to prevent microbial adhesion to a surface or detach microbial adhesion from a surface were measured against the following microbial strains: Pseudomonas aeruginosa (ATCC27853), Staphylococcus aureus (ATCC25923), Candida albicans (ATCC14053) and Acinetobacter baumannii (clinical isolate). […]
# (§3) Biofilms of the foregoing microorganisms were grown in a 96-well found-bottom polystyrene plate. Specifically, 180 μl of overnight cultures were added to the wells with 20 μl of each peptide diluted in PBS, either simultaneously to measure prevention or after a period of time to measure detachment from 4 hours up to 24 hours post incubation. After 24 hours of incubation at 37° C., each well was washed with water and stained with 250 μl of crystal violet solution. The crystal violet solution was then removed by thoroughly washing the wells with water. To quantify the number of bacteria cells attached to the wells, the crystal violet was solubilized in 250 μl of 1% sodium dodecyl sulfate and the absorbance was measured at 595 nm.
# [2] = system: Pseudomonas aeruginosa (ATCC27853); test: Biofilm detachment, crystal violet, 96-well plate; details: peptide 100 ng/ml, added after adhesion
# Procedure: as §1
# (§4) The ability of these peptides to prevent microbial adhesion to a surface or detach microbial adhesion from a surface were measured against the following microbial strains: Pseudomonas aeruginosa (ATCC27853), Staphylococcus aureus (ATCC25923), Candida albicans (ATCC14053) and Acinetobacter baumannii (clinical isolate). Specifically, peptides diluted to concentrations of 100 ng/ml were incubated with the foregoing microbes for 24 hours.
# as §3
# (§5) The ability of these peptides to (1) prevent microbial adhesion to a surface and to (2) detach microbes already adhered to a surface were measured against the following microbial strains: Pseudomonas aeruginosa (ATCC27853), Staphylococcus aureus (ATCC25923), Candida albicans (ATCC14053) and/or Escherichia coli. The resulting percentage of prevention or detachment, relative to control wells in which the microbes was allowed to culture in the absence of peptides, are indicated in FIGS. 13 to 16.
# [3] = system: Staphylococcus aureus (ATCC25923); test: Biofilm detachment, crystal violet, 96-well plate; details: peptide 100 ng/ml, added after adhesion
# Procedure: as §1, §4, §3, §5
# [4] = system: Candida albicans (ATCC14053); test: Biofilm detachment, crystal violet, 96-well plate; details: peptide 100 ng/ml, added after adhesion
# Procedure: as §1, §4, §3, §5
# [5] = system: Staphylococcus aureus (ATCC25923); test: Biofilm prevention, crystal violet, 96-well plate; details: peptide 100 ng/ml, added simultaneously, 24 h, 37° C.
# Procedure: as §1, §4, §3, §5
# [6] = system: Pseudomonas aeruginosa (ATCC27853); test: Biofilm prevention, crystal violet, 96-well plate; details: added simultaneously, 24 h, 37° C.
# Procedure: as §1, §2, §3, §5
# [7] = system: Candida albicans (ATCC14053); test: Biofilm prevention, crystal violet, 96-well plate; details: added simultaneously, 24 h, 37° C.
# Procedure: as §1, §2, §3, §5
# [8] = system: Acinetobacter baumannii (clinical isolate); test: Biofilm detachment, crystal violet, 96-well plate; details: peptide 100 ng/ml, added after adhesion
# Procedure: as §1, §4, §3
# [9] = system: Pseudomonas aeruginosa (ATCC 27853); test: Detachment of pre-formed biofilm from a well (Examples 1-7); details: different concentrations
# Procedure: A biofilm was created by incubating Pseudomonas aeruginosa (ATCC 27853) overnight in wells at 37° C., allowing the microorganism to attach to the well surface. Eqt2Z-cyc peptide [Custom Peptide Synthesis; Peptron, Korea] at different concentrations was subsequently added to the wells and allowed to incubate overnight. The P.a. control was Pseudomonas aeruginosa alone.
# (§6) A biofilm was created by culturing Pseudomonas aeruginosa (ATCC 27853) for 2 hours in a well at 37° C. Eqt2Z-cyc peptide at different concentrations was subsequently added to the well and allowed to incubate overnight. The Abac10-cyc peptide served as a negative control. The P.a. control was Pseudomonas aeruginosa alone.
# as §6, with “for 24 hours.” for “overnight.”, “alone. […] Staining was performed with crystal violet at OD 595 nm.” for “alone.”
# A biofilm was created by culturing Pseudomonas aeruginosa (ATCC 27853) for 2 hours in a well at 37° C. grZ14s-nvCyc peptide [Custom Peptide Synthesis; Peptron, Korea] at different concentrations was subsequently added to the well and allowed to incubate for 24 hours. The Abac10-cyc peptide served as a negative control. The P.a. control was Pseudomonas aeruginosa alone. […] Staining was performed with crystal violet at OD 595 nm.
# (§7) A biofilm was created by culturing Pseudomonas aeruginosa (ATCC 27853) for 24 hours in a well at 37° C. Eqt2Z-cyc peptide at different concentrations was subsequently added to the well and allowed to incubate for 24 hours. The Abac10-cyc peptide served as a negative control. The P.a. control was Pseudomonas aeruginosa alone. […] Staining was performed with crystal violet at OD 595 nm.
# as §7, with “grZ14s-nvCyc” for “Eqt2Z-cyc”
# A biofilm was created by culturing Pseudomonas aeruginosa (ATCC 27853) for 24 hours in a well at 37° C. PhyscoZ-Cyc peptide [Custom Peptide Synthesis; Peptron, Korea] at different concentrations was subsequently added to the well and allowed to incubate for 24 hours. The P.a. control was Pseudomonas aeruginosa alone. […] Staining was performed with crystal violet at OD 595 nm.
# [10] = 24-hour biofilm, 24-hour peptide incubation, crystal violet OD 595 nm
Sequence,Biofilm prevention (%) ([1]; peptide 10 ng/ml),Detachment (%) (100 ng/ml) [2],Detachment (%) (100 ng/ml) [3],Detachment (%) (100 ng/ml) [4],Biofilm prevention (%) [5] [%],Biofilm prevention (%) ([6]; peptide 100 ng/ml),Biofilm prevention (%) ([7]; peptide 100 ng/ml),Biofilm prevention (%) ([1]; peptide 100 ng/ml),Detachment (%) (100 ng/ml) [8],"microorganism detachment [9, 10]",Biofilm prevention (%) ([7]; peptide 10 ng/ml),Biofilm prevention (%) ([6]; peptide 10 ng/ml),"microorganism detachment ([9]; 2-hour biofilm, 24-hour peptide incubation, crystal violet OD 595 nm)","microorganism detachment ([9]; 2-hour biofilm, overnight peptide incubation)","microorganism detachment ([9]; overnight biofilm, overnight peptide incubation)"
CTVNSFDYDWYNVC (disulfide 1-14 (inferred)) [AnoliZ-cyc],92,90,72,72,75,95,55,,,,,,,,
CSELSSFNFDWYNVC (disulfide 1-15 (inferred)) [CionaZ-S-cyc],,78,,42,90,75,68,52,80,,,,,,
CTVHSFDYDWYNVC (disulfide 1-14 (inferred)) [CapraZ-cyc],,65,55,60,42,68,25,90,,,,,,,
CSVPFDYNLYSNWC [PhyscoZ-cyc] (also: cyclised),,75,70,,65,95,,,50,far greater microorganism detachment than in the P.a. control,62,,,,
CNVHSFDYDWYNVC (disulfide 1-14 (inferred)) [CanisZ-cyc],60,72,,45,75,95,80,,73,,,,,,
CKVNSFDYDWYNVC (disulfide 1-14 (inferred)) [MeleagZ-cyc],,65,80,62,73,82,30,95,,,,,,,
CSVPFDYNLYSNWC [SelagZ-cyc] (disulfide 1-14 (inferred)),,67,35,,88,88,,80,50,,80,,,,
CSAPYNFNFYSNWC (disulfide 1-14 (inferred)) [EchoZ-cyc],,65,35,,85,90,,80,60,,80,,,,
CRVESFDFDWYNIC (disulfide 1-14 (inferred)) [SalmoZ-cyc],,80,75,73,80,,55,95,,,,90,,,
CRINSFDYDWYNVC (disulfide 1-14 (inferred)) [TetraoZ-cyc],70,,43,55,52,45,25,,,,,,,,
CSVPYDYNWYSNWC (disulfide 1-14 (inferred)) [Eqt2Z-cyc],,,,,,,,,,far greater microorganism detachment than in the P.a. control or negative control,,,far greater microorganism detachment than in the P.a. control or negative control,far greater microorganism detachment than in the P.a. control or negative control,far greater microorganism detachment than in the P.a. control
CRVESFNYDWYNVC (disulfide 1-14 (inferred)) [NilotiZ-cyc],,40,65,65,63,90,30,87,,,,,,,
CSRYSSFDYDWYNVC (disulfide 1-15 (inferred)) [XenoZ-S-cyc],,30,,50,65,,75,95,49,,,57,,,
